Source: ChEMBL document CHEMBL1201862, “PubChem BioAssay data set” (2004)
Activity calls are given as the source filed them.

Assays:
[1] = alpha-synuclein stem-loop luciferase translation blockers – H4 neuroglioma cells, luminescence, confirmation (AID 1988); assay type: functional, cell-based
cells = assay type: functional, cell-based
Nonstructural protein 1 = Nonstructural protein 1 (Influenza A virus, UniProt Q194T2); assay type: functional, Influenza A virus (A/California/07/2009(H1N1))
Large T antigen = Large T antigen (Simian virus 40, UniProt P03070); assay type: functional, Betapolyomavirus macacae;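 also: Confirmatory-stage PubChem screen for compounds that inhibit SV40 T antigen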
Chain of Large T antigen (P03070 whole entry): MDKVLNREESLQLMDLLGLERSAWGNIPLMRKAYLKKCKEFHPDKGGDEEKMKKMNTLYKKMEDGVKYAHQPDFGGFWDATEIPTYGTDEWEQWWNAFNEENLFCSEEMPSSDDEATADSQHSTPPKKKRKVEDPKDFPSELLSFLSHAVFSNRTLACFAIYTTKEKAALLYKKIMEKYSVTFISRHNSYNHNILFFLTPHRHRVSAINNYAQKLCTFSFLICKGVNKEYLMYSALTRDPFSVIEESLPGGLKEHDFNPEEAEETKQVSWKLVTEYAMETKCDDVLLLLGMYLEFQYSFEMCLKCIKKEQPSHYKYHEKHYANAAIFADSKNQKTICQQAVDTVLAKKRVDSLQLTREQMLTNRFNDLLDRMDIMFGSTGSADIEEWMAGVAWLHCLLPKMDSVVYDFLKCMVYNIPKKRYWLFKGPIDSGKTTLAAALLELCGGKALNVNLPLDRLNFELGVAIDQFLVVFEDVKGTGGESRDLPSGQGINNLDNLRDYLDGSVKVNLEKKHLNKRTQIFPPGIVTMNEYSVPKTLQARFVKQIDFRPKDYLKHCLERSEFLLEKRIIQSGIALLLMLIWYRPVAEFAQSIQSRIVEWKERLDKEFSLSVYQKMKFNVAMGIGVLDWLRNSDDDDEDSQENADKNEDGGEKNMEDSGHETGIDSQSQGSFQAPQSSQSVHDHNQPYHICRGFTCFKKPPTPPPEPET

[2] = luciferase reporter signal suppression in cells – H4 neuroglioma cells, luminescence, dose response (AID 1990); assay type: functional, cell-based
[3] = alpha-synuclein stem-loop translation blockers – luminescence, H4 neuroglioblastoma cells, dose confirmation, confirmation (AID 2454); assay type: functional, cell-based;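 also: H4 neuroglioblastoma cells carrying an alpha-synuclein 5'UTR luciferase reporter; potency for inhibition of the luciferase signal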
[4] = luciferase reporter signal reduction – luminescence, H4-C neuroglioblastoma cells, dose response (AID 2458); assay type: functional, cell-based;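 also: H4 neuroglioblastoma cells stably carrying a luciferase reporter gene fusion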
[5] = target: DNA dC->dU-editing enzyme APOBEC-3G (Homo sapiens, UniProt Q9HC16); assay type: functional;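 also: Dose-response counterscreen measuring inhibition of APOBEC3G DNA deaminase activity, run while confirming APOBEC3A inhibitors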
Chain of DNA dC->dU-editing enzyme APOBEC-3G (Q9HC16 whole entry): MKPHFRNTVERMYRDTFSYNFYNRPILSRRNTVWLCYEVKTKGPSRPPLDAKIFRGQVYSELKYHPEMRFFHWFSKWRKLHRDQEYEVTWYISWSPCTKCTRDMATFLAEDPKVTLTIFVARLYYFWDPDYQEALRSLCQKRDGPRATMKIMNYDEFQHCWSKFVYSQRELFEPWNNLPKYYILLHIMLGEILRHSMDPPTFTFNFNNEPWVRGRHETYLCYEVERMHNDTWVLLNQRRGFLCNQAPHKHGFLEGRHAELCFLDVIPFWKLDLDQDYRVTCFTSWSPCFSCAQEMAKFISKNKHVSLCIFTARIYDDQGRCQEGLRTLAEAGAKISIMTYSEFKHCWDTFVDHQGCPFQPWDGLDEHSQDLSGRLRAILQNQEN

[6] = target: DNA dC->dU-editing enzyme APOBEC-3A (Homo sapiens, UniProt P31941); assay: Dose Response confirmation of small molecule APOBEC3A DNA Deaminase Inhibitors via a fluorescence-based single-stranded DNA deaminase assay. [Related pubchem assays (depositor defined):AID493011, AID493024]; assay type: functional
Chain of DNA dC->dU-editing enzyme APOBEC-3A (P31941 whole entry): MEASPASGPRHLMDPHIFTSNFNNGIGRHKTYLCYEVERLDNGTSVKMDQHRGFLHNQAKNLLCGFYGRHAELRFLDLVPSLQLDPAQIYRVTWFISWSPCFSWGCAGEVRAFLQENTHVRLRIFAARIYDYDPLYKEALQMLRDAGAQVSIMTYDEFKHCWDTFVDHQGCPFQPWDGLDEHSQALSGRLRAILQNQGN

[7] = target: T1, Tyrosine-protein phosphatase non-receptor type 7 (Homo sapiens, UniProt P35236); assay: redox-active compounds inhibiting HePTP phosphatase – biochemical, fluorescence, mechanism study (AID 2068); assay type: functional
T1 sequence (P35236 whole entry): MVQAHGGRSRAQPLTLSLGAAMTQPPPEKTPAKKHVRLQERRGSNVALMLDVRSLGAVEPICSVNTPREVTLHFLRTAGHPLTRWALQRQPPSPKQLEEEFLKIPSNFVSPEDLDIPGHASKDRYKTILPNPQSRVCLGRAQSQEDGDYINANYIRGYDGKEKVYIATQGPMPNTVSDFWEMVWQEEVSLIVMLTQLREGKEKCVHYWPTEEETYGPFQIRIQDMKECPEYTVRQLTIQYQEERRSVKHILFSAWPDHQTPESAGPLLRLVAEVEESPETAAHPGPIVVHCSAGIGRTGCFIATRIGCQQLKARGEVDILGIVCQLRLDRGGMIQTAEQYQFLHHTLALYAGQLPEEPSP

Beta-galactosidase = Beta-galactosidase (Escherichia coli, UniProt Q8VNN2); assay: detection-enzyme interference by beta-gal modulators – biochemical, E. coli enzyme, set 3, artefact control for CCR6 antagonist project, dose response (AID 504712); assay type: functional
Chain of Beta-galactosidase (Q8VNN2 whole entry): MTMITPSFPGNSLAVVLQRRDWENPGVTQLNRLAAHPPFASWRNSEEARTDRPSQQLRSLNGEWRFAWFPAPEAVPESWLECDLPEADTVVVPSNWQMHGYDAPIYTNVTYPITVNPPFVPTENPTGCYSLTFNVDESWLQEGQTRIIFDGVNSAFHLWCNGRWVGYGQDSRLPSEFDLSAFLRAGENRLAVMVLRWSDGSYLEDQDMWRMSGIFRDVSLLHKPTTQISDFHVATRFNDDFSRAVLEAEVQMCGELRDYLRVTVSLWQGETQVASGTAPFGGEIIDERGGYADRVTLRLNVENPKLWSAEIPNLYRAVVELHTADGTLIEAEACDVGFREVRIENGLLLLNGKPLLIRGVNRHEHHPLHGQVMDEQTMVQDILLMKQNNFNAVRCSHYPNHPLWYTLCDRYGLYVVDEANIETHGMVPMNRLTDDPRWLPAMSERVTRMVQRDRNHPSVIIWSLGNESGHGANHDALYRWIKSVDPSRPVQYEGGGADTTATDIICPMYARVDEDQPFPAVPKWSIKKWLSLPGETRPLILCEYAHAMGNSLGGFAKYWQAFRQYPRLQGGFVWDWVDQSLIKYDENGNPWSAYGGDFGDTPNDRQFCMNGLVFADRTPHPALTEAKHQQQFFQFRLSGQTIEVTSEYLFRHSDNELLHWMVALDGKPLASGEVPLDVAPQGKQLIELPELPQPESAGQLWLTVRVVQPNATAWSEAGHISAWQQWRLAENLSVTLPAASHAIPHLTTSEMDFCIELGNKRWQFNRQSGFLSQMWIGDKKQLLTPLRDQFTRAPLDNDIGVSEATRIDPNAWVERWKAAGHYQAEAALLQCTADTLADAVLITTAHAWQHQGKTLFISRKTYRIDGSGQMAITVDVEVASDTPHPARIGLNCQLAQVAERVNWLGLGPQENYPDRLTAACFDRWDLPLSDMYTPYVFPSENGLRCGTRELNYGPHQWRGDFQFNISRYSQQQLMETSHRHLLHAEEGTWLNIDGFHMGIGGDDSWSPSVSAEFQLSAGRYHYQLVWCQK

[8] = A Cell Based Secondary Assay To Explore Cytotoxicity of Compounds that Sensitize Mycobacterium Tuberculosis to Beta-Lactam Antibiotics.; assay type: functional
Streptococcus = assay: GAS UMAA2166 growth inhibition – luminescence, BacTiterGlo, counter-screen for streptokinase expression inhibitor project, dose response (AID 1915); assay type: functional, organism-based;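 also: potency for reduction of bacterial viability or growth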
[9] = tested on: Streptococcus sp. 'group A'; assay: Streptococcus pyogenes SK(-)GAS viability under kanamycin – luminescence, BacTiterGlo, confirmation, counter-screen for streptokinase expression inhibitor project, dose response (AID 1900); assay type: functional, organism-based
Streptokinase A = target: T2, Streptokinase A (Streptococcus pyogenes serotype M1, UniProt P10520); assay: viability-normalized secreted streptokinase activity reduction – plasminogen activation absorbance, OD405, dose response (AID 1914); assay type: functional, Streptococcus pyogenes M1 GAS;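 also: secreted streptokinase activity via plasminogen activation per viability signal from cell pellet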
T2 sequence (P10520 whole entry): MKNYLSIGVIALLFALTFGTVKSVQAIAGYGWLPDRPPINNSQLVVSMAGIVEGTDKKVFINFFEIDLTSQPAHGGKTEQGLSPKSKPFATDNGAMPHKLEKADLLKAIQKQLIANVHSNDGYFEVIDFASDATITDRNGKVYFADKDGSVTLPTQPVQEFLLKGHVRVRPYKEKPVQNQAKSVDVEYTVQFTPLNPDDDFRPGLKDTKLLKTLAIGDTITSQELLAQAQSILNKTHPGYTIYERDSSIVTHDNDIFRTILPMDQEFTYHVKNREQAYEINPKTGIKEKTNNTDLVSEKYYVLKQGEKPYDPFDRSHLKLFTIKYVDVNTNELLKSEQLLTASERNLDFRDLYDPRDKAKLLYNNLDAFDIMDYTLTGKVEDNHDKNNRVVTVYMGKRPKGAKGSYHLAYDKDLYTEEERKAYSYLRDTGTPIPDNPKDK

Aminopeptidase N = target: T3, Aminopeptidase N (Plasmodium falciparum FcB1/Columbia, UniProt O96935); assay: malaria alanyl aminopeptidase activity blockers – biochemical, fluorogenic H-Leu-NHMec substrate, 1536-well (AID 1445); set-up: species or system Plasmodium falciparum 3D7, 3D7
T3 sequence (O96935 whole entry): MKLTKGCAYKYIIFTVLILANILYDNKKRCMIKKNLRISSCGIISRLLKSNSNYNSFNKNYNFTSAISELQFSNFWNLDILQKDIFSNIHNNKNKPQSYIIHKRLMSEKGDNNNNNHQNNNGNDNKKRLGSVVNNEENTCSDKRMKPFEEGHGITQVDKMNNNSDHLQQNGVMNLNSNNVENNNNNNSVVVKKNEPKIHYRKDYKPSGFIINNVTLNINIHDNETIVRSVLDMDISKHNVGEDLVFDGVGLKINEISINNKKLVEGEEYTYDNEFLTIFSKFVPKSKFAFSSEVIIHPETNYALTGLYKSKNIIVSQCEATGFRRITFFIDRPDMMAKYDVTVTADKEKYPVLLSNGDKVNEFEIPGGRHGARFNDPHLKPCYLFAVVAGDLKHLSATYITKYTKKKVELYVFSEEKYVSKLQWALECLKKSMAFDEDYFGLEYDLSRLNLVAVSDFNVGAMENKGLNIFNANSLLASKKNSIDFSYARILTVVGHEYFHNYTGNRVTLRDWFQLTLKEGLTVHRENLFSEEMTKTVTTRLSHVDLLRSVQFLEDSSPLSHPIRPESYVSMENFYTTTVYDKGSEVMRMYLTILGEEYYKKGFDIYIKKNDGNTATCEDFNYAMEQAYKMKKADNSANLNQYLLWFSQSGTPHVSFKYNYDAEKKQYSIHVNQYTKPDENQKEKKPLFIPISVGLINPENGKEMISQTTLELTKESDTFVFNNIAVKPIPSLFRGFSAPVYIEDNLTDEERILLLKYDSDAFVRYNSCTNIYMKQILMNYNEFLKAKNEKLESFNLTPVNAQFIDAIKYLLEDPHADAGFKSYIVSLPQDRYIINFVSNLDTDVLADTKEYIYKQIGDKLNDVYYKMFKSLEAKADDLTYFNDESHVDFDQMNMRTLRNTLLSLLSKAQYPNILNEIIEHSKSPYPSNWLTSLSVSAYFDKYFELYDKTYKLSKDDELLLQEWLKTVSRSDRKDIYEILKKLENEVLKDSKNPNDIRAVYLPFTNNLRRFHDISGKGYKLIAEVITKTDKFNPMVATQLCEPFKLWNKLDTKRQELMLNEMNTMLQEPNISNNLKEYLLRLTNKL

[10] = target: T4, Calpain-2 catalytic subunit (Sus scrofa, UniProt P43367); assay: m-calpain protease blockers, concentration series – biochemical, fluorogenic peptide substrate, dose response (AID 1420); assay type: functional
T4 sequence (P43367 whole entry): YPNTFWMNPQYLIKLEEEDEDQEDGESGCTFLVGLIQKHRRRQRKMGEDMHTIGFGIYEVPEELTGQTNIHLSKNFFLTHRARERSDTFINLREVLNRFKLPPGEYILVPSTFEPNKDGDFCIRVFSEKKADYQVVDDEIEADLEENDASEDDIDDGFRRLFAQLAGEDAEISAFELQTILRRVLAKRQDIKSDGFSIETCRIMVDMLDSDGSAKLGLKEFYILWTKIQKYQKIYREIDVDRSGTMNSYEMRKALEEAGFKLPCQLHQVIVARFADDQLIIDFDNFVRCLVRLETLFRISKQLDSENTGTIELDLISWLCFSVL

[11] = viability of HCT116 lacking mutant beta-catenin – cell-based, human colon tumor, dose response (AID 1045); assay type: functional;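 also: HCT116 colon tumor cells with beta catenin knocked out; cells exposed to compound for 60 hours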
[12] = viability of PTEN-deleted HCT116 cells – cell-based, HCT116 PTEN knockout, dose response (AID 1047); assay type: functional;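 also: HCT116 colon tumor cells with PTEN knocked out; cells exposed to compound for 60 hours before readout; potency for loss of cell viability measured by luminescence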
Bcl-2-like protein 10 = target: T5, Bcl-2-like protein 10 (Homo sapiens, UniProt Q9HD36); assay: Bcl-B/TR3 peptide binding disruption – biochemical, fluorescence polarization, FITC-TR3 peptide, selectivity assay for Bfl-1 inhibitor project, primary screen (AID 748);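 also: fluorescence polarization from a fluorescein-labelled TR3 peptide binding purified Bcl-B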
T5 sequence (Q9HD36 whole entry): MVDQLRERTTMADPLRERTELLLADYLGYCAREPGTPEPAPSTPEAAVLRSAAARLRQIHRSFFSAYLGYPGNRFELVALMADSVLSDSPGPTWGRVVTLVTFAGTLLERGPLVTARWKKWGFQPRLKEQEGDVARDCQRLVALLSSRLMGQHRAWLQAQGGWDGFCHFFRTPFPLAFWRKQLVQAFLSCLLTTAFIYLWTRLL

[13] = target: T6, Rac GTPase-activating protein 1 (Homo sapiens, UniProt Q9H0H5); assay: blockers of MgcRacGAP-driven Rac1 GTP hydrolysis – biochemical, ADP Hunter fluorescence, primary and confirmatory, confirmation (AID 624330); assay type: functional
T6 sequence (Q9H0H5 whole entry): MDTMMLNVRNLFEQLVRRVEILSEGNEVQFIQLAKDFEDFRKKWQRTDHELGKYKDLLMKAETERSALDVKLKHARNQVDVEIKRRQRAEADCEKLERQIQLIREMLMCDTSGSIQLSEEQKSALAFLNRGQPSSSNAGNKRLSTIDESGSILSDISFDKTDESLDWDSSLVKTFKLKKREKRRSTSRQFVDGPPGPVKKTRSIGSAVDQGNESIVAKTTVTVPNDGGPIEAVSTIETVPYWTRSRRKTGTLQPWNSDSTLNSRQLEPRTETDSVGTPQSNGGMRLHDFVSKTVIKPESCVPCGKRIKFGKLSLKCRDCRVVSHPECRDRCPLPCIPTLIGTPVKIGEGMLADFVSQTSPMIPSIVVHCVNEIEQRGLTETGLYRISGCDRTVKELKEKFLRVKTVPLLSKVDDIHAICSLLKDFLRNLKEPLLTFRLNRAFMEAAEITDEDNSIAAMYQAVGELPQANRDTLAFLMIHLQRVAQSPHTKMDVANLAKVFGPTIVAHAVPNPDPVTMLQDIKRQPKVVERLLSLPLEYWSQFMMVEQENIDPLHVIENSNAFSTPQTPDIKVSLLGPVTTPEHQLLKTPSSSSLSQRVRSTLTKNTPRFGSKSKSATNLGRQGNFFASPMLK

Protein skinhead-1 = target: T7, Protein skinhead-1 (Caenorhabditis elegans, UniProt P34707); assay type: functional
T7 sequence (P34707 whole entry): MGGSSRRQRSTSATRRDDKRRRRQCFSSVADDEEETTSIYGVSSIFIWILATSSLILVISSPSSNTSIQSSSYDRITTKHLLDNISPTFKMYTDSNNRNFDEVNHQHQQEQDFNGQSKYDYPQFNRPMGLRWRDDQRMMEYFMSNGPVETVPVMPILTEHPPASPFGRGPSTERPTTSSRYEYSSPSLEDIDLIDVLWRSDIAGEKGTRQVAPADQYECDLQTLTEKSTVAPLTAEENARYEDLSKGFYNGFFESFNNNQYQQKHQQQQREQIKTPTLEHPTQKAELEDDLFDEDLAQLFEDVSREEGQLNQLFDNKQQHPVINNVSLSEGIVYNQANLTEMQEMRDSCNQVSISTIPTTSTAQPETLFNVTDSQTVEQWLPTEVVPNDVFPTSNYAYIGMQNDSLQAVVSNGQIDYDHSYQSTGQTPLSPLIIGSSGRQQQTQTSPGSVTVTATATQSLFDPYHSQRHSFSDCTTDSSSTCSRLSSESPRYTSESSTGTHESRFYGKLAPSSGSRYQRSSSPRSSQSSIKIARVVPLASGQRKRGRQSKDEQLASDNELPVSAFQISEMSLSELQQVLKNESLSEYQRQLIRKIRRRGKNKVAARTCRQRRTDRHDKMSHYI

[14] = Luminescence Cell-Based Dose Response HTS to Identify Inhibitors of 5'UTR Stem-Loop Driven Prion Protein mRNA Translation in H4 Neuroglioblastoma Cells. [Related pubchem assays: 1827 (Project Summary), 1813 (Primary HTS)]; assay type: functional
[15] = HEK-293T viability loss after treatment – luminescence, T-cell screen hits, cytotoxicity control for TCR NF-kB inhibitor project, dose response (AID 489026); assay type: functional, cell-based;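 also: cells exposed to compound about 14 hours before the viability readout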

Chain of Nonstructural protein 1 (Q194T2 whole entry): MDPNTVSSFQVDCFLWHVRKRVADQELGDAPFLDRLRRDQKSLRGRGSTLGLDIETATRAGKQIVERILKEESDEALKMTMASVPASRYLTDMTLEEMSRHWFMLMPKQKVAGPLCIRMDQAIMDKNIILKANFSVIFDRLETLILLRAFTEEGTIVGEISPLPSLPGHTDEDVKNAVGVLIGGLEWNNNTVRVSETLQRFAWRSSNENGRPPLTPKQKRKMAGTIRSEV

Cc1nc2ncccn2c1-c1csc(Nc2ccc(N(C)C)cc2)n1
EC50 [1]: < 0.1 µM (inconclusive) | EC50 (cells): 0.163 µM (active) | IC50 (Nonstructural protein 1): 8.9 µM (active) | IC50 (Large T antigen): 6.91 µM (active) | EC50 [2]: > 120 µM (not active) | EC50 [3]: 0.128 µM (active) | EC50 [4]: 0.108 µM (active)

CC1(C#CC[N+]2(C)CCCCC2)CCC2C(O1)c1ccccc1OC2(C)C (configuration not stated)
IC50 [5]: 5.07 µM (active) | IC50 [6]: 3.03 µM (active)

COc1cccc(NC(=O)Nc2ccc3nc(-c4ccco4)c(-c4ccco4)nc3c2)c1
IC50 [7]: 1.09 µM (active)

O=C1CC(Sc2nnnn2C2CCCCC2)C(=O)N1c1ccccc1 (configuration not stated)
IC50 (Beta-galactosidase): > 66.6 µM (inactive)

Cc1cccc(NC(=O)c2nc[nH]c2C(=O)N[C@@H](CC(C)C)C(=O)OCc2ccccc2)c1
CC50 [8]: 22.4 µM (active) | EC50 (Streptococcus): 3.95 µM (active) | EC50 [9]: 2.12 µM (active) | EC50 (Streptokinase A): > 150 µM (not active)

COc1ccc(Br)cc1/C=N/NC(=O)CNC(=O)c1cccnc1
IC50 (Aminopeptidase N): 27.2 µM (active)

O=C(Nc1ccc(OC(=O)c2ccccc2)c(-c2nc3ccccc3s2)c1)c1ccccc1
IC50 [10]: 18.5 µM (not active) | CC50 [8]: > 40 µM (active) | EC50 [11]: 24.2 µM (active) | EC50 [12]: 18.2 µM (active)

Nc1ccc(N2CCN(C(=O)c3cccs3)CC2)cc1
IC50 (Bcl-2-like protein 10): > 100 µM (inactive) | IC50 [13]: 19 µM (active) | IC50 (Protein skinhead-1): > 100 µM (inactive)

CCOc1ccccc1NC(=O)Cn1nnc(C(=O)NCc2cccs2)c1N
EC50 [1]: < 0.1 µM (active) | EC50 [14]: < 0.1 µM (active) | IC50 [15]: > 80 µM (inactive) | EC50 (cells): 0.696 µM (active) | EC50 [2]: 0.146 µM (active) | EC50 [3]: 0.685 µM (active) | EC50 [4]: 0.877 µM (active)

Cc1cc(=O)oc2c(CN(CC(C)C)CC(C)C)c(O)ccc12
IC50 (Aminopeptidase N): 74 µM (active)

Cc1cc(C)c(C)c(S(=O)(=O)N2CCC(C(=O)OCC(=O)N3c4ccccc4NC(=O)C3(C)C)CC2)c1C
IC50 (Bcl-2-like protein 10): 45.3 µM (active)
